Experimental data published in patent publication US12121514B2, “Nonselective metabotropic glutamate receptor activators for treatment of attention deficit disorder and 22Q syndrome” (THE CHILDREN'S HOSPITAL OF PHILADELPHIA, priority 2015, dated 2024).

System: ADHD subject with depression
Test: Vanderbilt depression items 43-46, Phase Ib trial of NFC-1
Type: in vivo, human
Details: one subject scoring 3 on all 4 items at week 1; week 5
Source text: The Vanderbilt Rating Scale is a measure that can be completed by parents or teachers (separate forms, see Vanderbilt Rating Scale Parents and Vanderbilt Rating Scale Teachers). The Vanderbilt scale rates the child's behavior on items such as attention, finishing tasks, hyperactivity, difficulty waiting, and measures of conduct or oppositional defiant disorders—as well as measures of overall school performance and interactions with others. The first 18 items on the Vanderbilt scale correspond to those of the ADHD Rating Scale IV above while the Vanderbilt scale also includes items 19-47 related to other mental disorders including ODD (items 19-26), conduct disorder (items 27-40), anxiety (items 41, 42, and 47), and depression (items 43-46). Each of the behavioral assessment items on the Vanderbilt Scale are rated 0, 1, 2, or 3, with 0=never occurring; 1=occasionally, 2=often, and 3=very often. Thus, the ADHD Rating Scale IV, ADHD Rating Scale V, and items 1-18 of the Vanderbilt Rating Scale are equivalent scales, while additional items on the Vanderbilt Scale assess co-morbid phenotypes and disorders.
Two subjects had maximum scores of 3 on 2 of the 3 Vanderbilt items 41, 42, and 47 that are related to anxiety at enrollment. […] One of those subjects also scored 3 on 3 of the 4 Vanderbilt items related to depression (items 43-46) at enrollment and scored 3 on all 4 items at week 1.

Structure (SMILES): O=C1CC[C@H](C(=O)N2CCCCC2)N1 [NFC-1, fasoracetam monohydrate]
- scores on Vanderbilt depression items 43-46: scored either 1 or 2 on all 4 items
